US11426397B2, “Piperidinyl- and piperazinyl-substituted heteroaromatic carboxamides as modulators of GPR6” (TAKEDA PHARMACEUTICAL COMPANY LIMITED, priority 2017, dated 2022)

What follows are molecules tested against T1, GPR6 receptor expressed in CHO-K1 cells (Homo sapiens, UniProt P46095) (assay: In vitro inhibition of cAMP (EC50), cell-based HTRF cAMP assay). Details: inhibition of constitutive cAMP activity of GPR6 in CHO-K1 cells.
T1 construct: expressed in transfected cells
Experimental: I. In Vitro Inhibition of cAMP (EC50)
This cell based assay measures the ability of test compounds to inhibit the constitutive cAMP activity of GPR6 receptor expressed in CHO-K1 cells. CHO cells are stably expressed with GPR6 receptor, whose expression is controlled by a tetracycline inducible element. The cells were cultured in medium containing F12K, 10% FBS, 1% Penn/Strep, 200 μg/mL Hygromycin. GPR6 receptor expression is induced for 20 hours with 2 μg/mL doxycycline (Sigma D9891) in growth media. After addition of doxycycline, the cells are plated at a density of 450-750 cells per well in 96-well half-volume black tissue culture plates (Costar) and placed in an incubator (37° C., 5% CO2) for 20 hours prior to cAMP assays.
Culture media is removed from the cells and they are washed with 50 μL/well of Ringer's Buffer (MgCl2 0.047 mg/mL, NaH2PO4 0.18 mg/mL, Na2HPO4 0.1 mg/mL, KCl 0.34 mg/mL, NaHCO3 1.26 mg/mL, D-glucose 1.8 mg/mL, NaCl 7 mg/mL; pH=7.4). The test compounds are suspended in DMSO, diluted in Ringer's Buffer containing 0.5% fatty acid free BSA plus 300 μM IBMX, and incubated on the cells for 45 minutes at 37° C. and 5% CO2. After incubation, the cells are conditioned for 10 minutes at room temp with Eu-cAMP tracer solution from a Perkin Elmer Lance HTRF Ultra cAMP assay kit (TRF0263). Then ULight™-anti-cAMP solution from the Lance HTRF kit is added and incubated on a shaker at room temp for 1 hour prior to HTRF detection in a Perkin Elmer Envision plate reader. EC50 curves are generated with a four-parameter logistic equation using GraphPad Prism 5.03.
Table 1 lists biological assay data (in vitro inhibition of cAMP) for some of the compounds shown in the examples, where larger pEC50 values represent higher activity or potency. All of the compounds shown in Table 1 were tested in accordance with a cell-based assay which measures the ability of test compounds to inhibit the constitutive cAMP activity of GPR6 receptor expressed in CHO-K1 cells (reported as pEC50). The assay is described in the specification under the heading “In vitro inhibition of cAMP (EC50).”

T1 sequence (P46095 whole entry): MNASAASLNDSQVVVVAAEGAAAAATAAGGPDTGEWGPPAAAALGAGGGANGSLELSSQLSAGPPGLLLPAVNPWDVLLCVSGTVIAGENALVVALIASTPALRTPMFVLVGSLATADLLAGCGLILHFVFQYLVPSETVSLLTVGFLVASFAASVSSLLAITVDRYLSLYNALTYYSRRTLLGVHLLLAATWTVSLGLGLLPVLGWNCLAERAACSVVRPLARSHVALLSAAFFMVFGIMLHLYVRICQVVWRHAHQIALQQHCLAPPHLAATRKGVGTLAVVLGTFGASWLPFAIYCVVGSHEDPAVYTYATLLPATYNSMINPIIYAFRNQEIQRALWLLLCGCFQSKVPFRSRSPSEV

**Q.** For `COc1ccc(F)c(F)c1C(=O)Nc1cc(C#N)ccc1N1CCC(Oc2ccc(F)cc2F)CC1` [Example 192, N-(5-cyano-2-(4-(2,4-difluorophenoxy)piperidin-1-yl)phenyl)-2,3-difluoro-6-methoxybenzamide], which “pEC50, in vitro inhibition of cAMP” value is on record?
**A.** 6.3

**Q.** `COc1cc(F)ccc1C(=O)Nc1cc(C#N)cnc1N1CCC(Oc2ccc(F)cc2F)CC1` [Example 56, N-(5-cyano-2-(4-(2,4-difluorobenoxy)piperidin-1-yl)pyridin-3-yl)-4-fluoro-2-methoxybenzamide] was tested. Which “pEC50, in vitro inhibition of cAMP” value did it give?
**A.** 7.2

**Q.** With `N#Cc1ccc(N2CCC(Oc3ccc(F)cc3F)CC2)c(NC(=O)c2cccnc2OC(F)F)c1` [Example 276, N-(5-cyano-2-(4-(2,4-difluorophenoxy)piperidin-1-yl)phenyl)-2-(difluoromethoxy)nicotinamide] as the molecule, how does the “pEC50, in vitro inhibition of cAMP” value read?
**A.** 7.3

**Q.** `COc1ncccc1C(=O)Nc1cc(C#N)ccc1N1CCN(Cc2ccc(F)c(F)c2)CC1` [Example 246, N-(5-cyano-2-(4-(3,4-difluorobenzyl)piperazin-1-yl)phenyl)-2-methoxynicotinamide] was tested. Which “pEC50, in vitro inhibition of cAMP” value did it give?
**A.** 7.1

**Q.** Which “pEC50, in vitro inhibition of cAMP” value does the source give for `Cc1nc(C(=O)Nc2cc(C#N)ccc2N2CCC(Oc3ccc(F)cc3F)CC2)ccc1F` [Example 137, N-(5-cyano-2-(4-(2,4-difluorophenoxy)piperidin-1-yl)phenyl)-5-fluoro-6-methylpicolinamide] here?
**A.** 7.1

**Q.** With `COc1ccncc1C(=O)Nc1ccc(C#N)cc1N1CCC(Oc2ccc(F)cc2F)CC1` [Example 92, N-(4-cyano-2-(4-(2,4-difluorophenoxy)piperidin-1-yl)phenyl)-4-methoxynicotinamide] as the molecule, how does the “pEC50, in vitro inhibition of cAMP” value read?
**A.** 7.3

**Q.** `N#Cc1ccc(N2CCC(Oc3ccc(F)cc3F)CC2)c(NC(=O)c2cnc3ccccn3c2=O)c1` [Example 178, N-(5-cyano-2-(4-(2,4-difluorophenoxy)piperidin-1-yl)phenyl)-4-oxo-4H-pyrido[1,2-a]pyrimidine-3-carboxamide] was tested. Which “pEC50, in vitro inhibition of cAMP” value did it give?
**A.** 6.8

**Q.** `Cn1cccc(C(=O)Nc2cc(C#N)ccc2N2CCC(C(=O)c3cc(F)ccc3F)CC2)c1=O` [Example 82, N-(5-cyano-2-(4-(2,5-difluorobenzoyl)piperidin-1-yl)phenyl)-1-methyl-2-oxo-1,2-dihydropyridine-3-carboxamide] was tested. Which “pEC50, in vitro inhibition of cAMP” value did it give?
**A.** 7.0

**Q.** Which “pEC50, in vitro inhibition of cAMP” value does the source give for `COc1ncccc1C(=O)Nc1cc(C#N)ncc1N1CCC(Oc2ccc(F)cc2F)CC1` [Example 261, N-(2-cyano-5-(4-(2,4-difluorophenoxy)piperidin-1-yl)pyridin-4-yl)-2-methoxynicotinamide] here?
**A.** 7.2

**Q.** How did the “pEC50, in vitro inhibition of cAMP” value turn out when `Cc1ocnc1C(=O)Nc1cc(C#N)ccc1N1CCC(Oc2ccc(F)cc2F)CC1` [Example 127, N-(5-cyano-2-(4-(2,4-difluorophenoxy)piperidin-1-yl)phenyl)-5-methyloxazole-4-carboxamide] was run?
**A.** 6.1

**Q.** How did the “pEC50, in vitro inhibition of cAMP” value turn out when `COc1c(Cl)ccc(Cl)c1C(=O)Nc1cc(C#N)ccc1N1CCC(Oc2ccc(F)cc2F)CC1` [Example 206, 3,6-dichloro-N-(5-cyano-2-(4-(2,4-difluorophenoxy)piperidin-1-yl)phenyl)-2-methoxybenzamide] was run?
**A.** 5.1

**Q.** For `Cn1cccc(C(=O)Nc2cc(C#N)ccc2N2CCC(Oc3ccccc3F)CC2)c1=O` [Example 8], which “pEC50, in vitro inhibition of cAMP” value is on record?
**A.** 6.9

**Q.** `COc1c(F)cccc1C(=O)Nc1cc(S(C)(=O)=O)ccc1N1CCC(Oc2ccc(F)cc2F)CC1` [Example 10] was tested. Which “pEC50, in vitro inhibition of cAMP” value did it give?
**A.** 6.9

**Q.** `Cc1cc(C(=O)Nc2cc(C#N)ccc2N2CCC(Oc3ccc(F)cc3F)CC2)no1` [Example 41, N-(5-cyano-2-(4-(2,4-difluorophenoxy)piperidin-1-yl)phenyl)-5-methylisoxazole-3-carboxamide] was tested. Which “pEC50, in vitro inhibition of cAMP” value did it give?
**A.** 6.4

**Q.** How did the “pEC50, in vitro inhibition of cAMP” value turn out when `N#Cc1ccc(N2CCC(Oc3ccc(F)cc3F)CC2)c(NC(=O)c2ncoc2C2CC2)c1` [Example 111] was run?
**A.** 5.5

**Q.** How did the “pEC50, in vitro inhibition of cAMP” value turn out when `COc1cc(Cl)ccc1C(=O)Nc1cc(C#N)ccc1N1CCC(Oc2ccc(F)cc2F)CC1` [Example 228, 4-chloro-N-(5-cyano-2-(4-(2,4-difluorophenoxy)piperidin-1-yl)phenyl)-2-methoxybenzamide] was run?
**A.** 7.2

**Q.** With `Cc1ccc(C(=O)Nc2cc(C#N)ccc2N2CCC(Oc3ccc(F)cc3F)CC2)nn1` [Example 146, N-(5-cyano-2-(4-(2,4-difluorophenoxy)piperidin-1-yl)phenyl)-6-methylpyridazine-3-carboxamide] as the molecule, how does the “pEC50, in vitro inhibition of cAMP” value read?
**A.** 6.6

**Q.** For `Cn1cccc(C(=O)Nc2cc(C#N)ccc2N2CCC(Oc3cccc(F)c3)CC2)c1=O` [Example 12, N-(5-cyano-2-(4-(3-fluorophenoxy)piperidin-1-yl)phenyl)-1-methyl-2-oxo-1,2-dihydropyridine-3-carboxamide], which “pEC50, in vitro inhibition of cAMP” value is on record?
**A.** 6.4

**Q.** For `COc1ccc(C)cc1C(=O)Nc1cc(C#N)ccc1N1CCC(Oc2ccc(F)cc2F)CC1` [Example 237, N-(5-cyano-2-(4-(2,4-difluorophenoxy)piperidin-1-yl)phenyl)-2-methoxy-5-methylbenzamide], which “pEC50, in vitro inhibition of cAMP” value is on record?
**A.** 6.7

**Q.** For `Cn1cc2ccc(NC(=O)c3ccccn3)c(N3CCC(Oc4ccc(F)cc4F)CC3)c2n1` [Example 149, N-(7-(4-(2,4-difluorophenoxy)piperidin-1-yl)-2-methyl-2H-indazol-6-yl)picolinamide], which “pEC50, in vitro inhibition of cAMP” value is on record?
**A.** 5.8

**Q.** How did the “pEC50, in vitro inhibition of cAMP” value turn out when `COc1cc(F)c(F)cc1CN1CCN(c2ncc(C#N)cc2NC(=O)c2cn(C)nc2OC)CC1` [Example 170, N-(5-cyano-2-(4-(4,5-difluoro-2-methoxybenzyl)piperazin-1-yl)pyridin-3-yl)-3-methoxy-1-methyl-1H-pyrazole-4-carboxamide] was run?
**A.** 6.5

**Q.** For `CNC(=O)c1cc(N2CCC(Oc3ccc(F)cc3F)CC2)c(NC(=O)c2cccnc2OC)cn1` [Example 19, 4-(4-(2,4-difluorophenoxy)piperidin-1-yl)-5-(2-methoxynicotinamido)-N-methylpicolinamide], which “pEC50, in vitro inhibition of cAMP” value is on record?
**A.** 6.7

**Q.** Which “pEC50, in vitro inhibition of cAMP” value does the source give for `COc1nc(C)ncc1C(=O)Nc1cc(C#N)ccc1N1CCC(Oc2ccc(F)cc2F)CC1` [Example 278] here?
**A.** 7.4

**Q.** With `CCCCn1cccc(C(=O)Nc2cc(C#N)ccc2N2CCC(Oc3ccc(F)cc3F)CC2)c1=O` [Example 179, 1-butyl-N-(5-cyano-2-(4-(2,4-difluorophenoxy)piperidin-1-yl)phenyl)-2-oxo-1,2-dihydropyridine-3-carboxamide] as the molecule, how does the “pEC50, in vitro inhibition of cAMP” value read?
**A.** 6.2

**Q.** Which “pEC50, in vitro inhibition of cAMP” value does the source give for `Cn1cccc(C(=O)Nc2cc(C#N)ccc2N2CCC(Oc3cccc(F)c3F)CC2)c1=O` [Example 9, N-(5-cyano-2-(4-(2,3-difluorophenoxy)piperidin-1-yl)phenyl)-1-methyl-2-oxo-1,2-dihydropyridine-3-carboxamide] here?
**A.** 6.1

**Q.** `COc1ncccc1C(=O)Nc1cnccc1N1CCC(Oc2ccc(F)cc2F)CC1` [Example 264] was tested. Which “pEC50, in vitro inhibition of cAMP” value did it give?
**A.** 6.8

**Q.** `COc1ccc(OC2CCN(c3ccc(S(C)(=O)=O)cc3NC(=O)c3cn(CCF)nc3OC)CC2)c(F)c1` [Example 1, V-(2-(4-(2-fluoro-4-methoxyphenoxy)piperidin-1-yl)-5-(methylsulfonyl)phenyl)-1-(2-fluoroethyl)-3-methoxy-1H-pyrazole-4-carboxamide] was tested. Which “pEC50, in vitro inhibition of cAMP” value did it give?
**A.** 7.2

**Q.** Which “pEC50, in vitro inhibition of cAMP” value does the source give for `COc1ncccc1C(=O)Nc1cc(C#N)ccc1N1CCC(C(OC)c2ccc(F)cc2)CC1` (centres unmarked) [Example 96, N-(5-cyano-2-(4-((4-fluorophenyl)(methoxy)methyl)piperidin-1-yl)phenyl)-2-methoxynicotinamide] here?
**A.** 6.5

**Q.** With `COc1ccc(C(=O)Nc2cc(C#N)ccc2N2CCC(Oc3ccc(F)cc3F)CC2)c(OC)c1` [Example 235, N-(5-cyano-2-(4-(2,4-difluorophenoxy)piperidin-1-yl)phenyl)-2,4-dimethoxybenzamide] as the molecule, how does the “pEC50, in vitro inhibition of cAMP” value read?
**A.** 7.1

**Q.** How did the “pEC50, in vitro inhibition of cAMP” value turn out when `COc1ccc(OC2CCN(c3ccc(C#N)cc3NC(=O)c3cccn(C)c3=O)CC2)c(F)c1` [Example 29, N-(5-cyano-2-(4-(2-fluoro-4-methoxyphenoxy)piperidin-1-yl)phenyl)-1-methyl-2-oxo-1,2-dihydropyridine-3-carboxamide] was run?
**A.** 7.3

**Q.** With `Cc1onc(C(=O)Nc2cc(C#N)ccc2N2CCC(Oc3ccc(F)cc3F)CC2)c1C` [Example 131, N-(5-cyano-2-(4-(2,4-difluorophenoxy)piperidin-1-yl)phenyl)-4,5-dimethylisoxazole-3-carboxamide] as the molecule, how does the “pEC50, in vitro inhibition of cAMP” value read?
**A.** 7.0

**Q.** How did the “pEC50, in vitro inhibition of cAMP” value turn out when `COc1nn(C)cc1C(=O)Nc1cc(C#N)cnc1N1CCN(Cc2ccc(C#N)cc2)CC1` [Example 153, N-(5-cyano-2-(4-(4-cyanobenzyl)piperazin-1-yl)pyridin-3-yl)-3-methoxy-1-methyl-1H-pyrazole-4-carboxamide] was run?
**A.** 6.4
